SMILES strings stand for the structures. Where a name gives a salt, the structure may show the parent alone. Activity calls are given as the source filed them. Bounds are passed on as bounds.

By AC50 is commonly meant the midpoint of the concentration-response curve, whichever way the signal moves. As usually defined, the Ki is a dissociation constant, usually derived from enzyme kinetics or from competition with a known ligand. For orientation: EC50 means the concentration that produces a half-maximal response. For orientation: CC50 means the concentration giving 50% cytotoxicity.

The target in one test is Bcl-2-like protein 10 (Homo sapiens, UniProt Q9HD36). Nature of the test: Bcl-B/TR3 peptide binding disruption – biochemical, fluorescence polarization, FITC-TR3 peptide, selectivity assay for Bfl-1 inhibitor project, primary screen (AID 748).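 Further: fluorescence polarization from a fluorescein-labelled TR3 peptide binding purified Bcl-B.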 In general terms: In fluorescence polarisation assays a small probe gives low polarisation when free and higher when bound to something large.

Another test addresses Large T antigen (Simian virus 40, UniProt P03070). Type of test: functional, Betapolyomavirus macacae.
Test [1] has as its target Cyclin-dependent kinase 5/CDK5 activator 1 (Homo sapiens, UniProt Q00535). Nature of the test: blockade of human CDK5 activity – biochemical, cherry-picked samples, set 2, dose response (AID 504545).
The next test addresses Cytochrome P450 3A4 (Homo sapiens, UniProt P08684). The settings on record: Potency.
Test [2] has as its target T1, Long-chain-fatty-acid--AMP ligase FadD28 (Mycobacterium tuberculosis, UniProt P9WQ59).
T1 sequence (P9WQ59 whole entry): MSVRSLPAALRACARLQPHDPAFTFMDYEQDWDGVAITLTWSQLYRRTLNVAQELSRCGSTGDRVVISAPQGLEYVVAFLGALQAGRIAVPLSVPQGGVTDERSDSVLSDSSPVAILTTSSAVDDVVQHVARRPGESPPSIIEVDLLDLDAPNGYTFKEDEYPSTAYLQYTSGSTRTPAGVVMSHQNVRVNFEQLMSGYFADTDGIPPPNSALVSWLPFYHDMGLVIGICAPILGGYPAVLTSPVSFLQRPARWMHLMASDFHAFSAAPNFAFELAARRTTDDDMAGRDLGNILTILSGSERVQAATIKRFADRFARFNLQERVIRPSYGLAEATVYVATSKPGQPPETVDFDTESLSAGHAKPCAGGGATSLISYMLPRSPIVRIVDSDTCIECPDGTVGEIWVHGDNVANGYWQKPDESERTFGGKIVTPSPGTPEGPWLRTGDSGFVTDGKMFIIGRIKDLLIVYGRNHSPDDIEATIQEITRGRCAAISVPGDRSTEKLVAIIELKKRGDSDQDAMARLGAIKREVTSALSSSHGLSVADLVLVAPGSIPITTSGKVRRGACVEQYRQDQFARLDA
Kind of test: Fluorescence polarization aasay to screen for inhibitors that compete for the binding of FadD28 to a bisubstrate Measured in Biochemical System Using Plate Reader - 2147-01_Inhibitor_Dose_CherryPick_Activity. Format: functional, Mycobacterium tuberculosis H37Rv.

The target in test [3] is Dual specificity tyrosine-phosphorylation-regulated kinase 1A (Rattus norvegicus, UniProt Q63470). Type of test: biochemical, Homo sapiens.
A further test has as its target T2, Cytochrome P450 1A2 (Homo sapiens, UniProt P05177).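 Further: PubChem cytochrome P450 panel assay, CYP1A2 panel member.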
T2 sequence (P05177 whole entry): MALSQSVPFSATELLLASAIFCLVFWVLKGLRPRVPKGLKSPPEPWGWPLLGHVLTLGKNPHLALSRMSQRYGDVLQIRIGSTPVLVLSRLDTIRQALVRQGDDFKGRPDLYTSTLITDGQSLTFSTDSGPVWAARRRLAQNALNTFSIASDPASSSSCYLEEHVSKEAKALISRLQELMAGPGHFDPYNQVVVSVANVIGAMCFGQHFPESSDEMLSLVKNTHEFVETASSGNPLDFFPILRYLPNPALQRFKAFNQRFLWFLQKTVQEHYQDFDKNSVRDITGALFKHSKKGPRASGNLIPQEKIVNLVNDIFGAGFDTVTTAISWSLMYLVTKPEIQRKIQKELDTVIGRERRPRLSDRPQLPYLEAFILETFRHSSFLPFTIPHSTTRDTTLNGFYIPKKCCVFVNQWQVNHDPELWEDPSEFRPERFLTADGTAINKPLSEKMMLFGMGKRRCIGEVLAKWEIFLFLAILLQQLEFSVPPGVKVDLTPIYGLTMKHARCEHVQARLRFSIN

For test [4], the target named is Dual specificity protein phosphatase 3 (Homo sapiens, UniProt P51452). Nature of the test: inhibition constants for human DUSP3 – biochemical, colorimetric, SAR follow-up (AID 2004).
Test [5] deals with G2/mitotic-specific cyclin-B1 (Homo sapiens, UniProt P14635). Nature of the test: HeLa cell cycle G2/M accumulation – FACS, mechanism study for Wee1 degradation inhibitor project, late-stage follow-up, panel member Cyclin B Degradation (AID 2088).
A further test addresses Wee1-like protein kinase (Homo sapiens, UniProt P30291). Kind of test: HeLa cell cycle G2/M accumulation – FACS, mechanism study for Wee1 degradation inhibitor project, late-stage follow-up, panel member Wee1 Degradation (AID 2088).
Test [6] deals with NACHT, LRR and PYD domains-containing protein 3 (Homo sapiens, UniProt Q96P20). Kind of test: NALP3 inhibitors in yeast, dose response, luminescent (AID 488799). Format: functional.
Test [7] addresses T3, Voltage-dependent T-type calcium channel subunit alpha-1H (Homo sapiens, UniProt O95180). Type of test: functional.
Test [8] addresses T4, Endoribonuclease toxin MazF (Escherichia coli K-12, UniProt P0AE70).
T4 sequence (P0AE70 whole entry): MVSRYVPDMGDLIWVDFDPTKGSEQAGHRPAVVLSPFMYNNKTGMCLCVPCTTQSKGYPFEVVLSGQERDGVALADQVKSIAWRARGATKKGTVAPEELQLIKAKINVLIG
Nature of the test: substrate-only fluorescence increase artefacts – biochemical, single-stranded RNase substrate, counter-screen for MazEF activator project, dose response (AID 588502). Type of test: functional. (In general: Counterscreens check selectivity or assay interference.)

Test [9] deals with T4, Endoribonuclease toxin MazF. Nature of the test: activation of MazEF endoribonuclease cleavage – biochemical, fluorescence, single-stranded RNA substrate, uHTS hits, dose response (AID 588481). Format: functional.
Test [10] concerns the target T3, Voltage-dependent T-type calcium channel subunit alpha-1H. Kind of test: Inhibitors of T-Type Calcium Channels. [Related pubchem assays (depositor defined):AID449739, AID463087, AID489005, AID493041, AID504579, AID504584, AID504619, AID504628]. Format: functional.
Test [11] has as its target T5, Small ubiquitin-related modifier 1 (Homo sapiens, UniProt P63165). Kind of test: SUMO1 protein-protein binding blockers, potency – biochemical, FRET, dose response (AID 624383). Format: functional. The settings on record: read-out: IC50_Mean.
In test [12] the target is 72 kDa type IV collagenase (Homo sapiens, UniProt P08253). Kind of test: Dose Response validation of uHTS RPN11 inhibitor hits using a MMP-2 Fluorescence assay. Type of test: functional.
Test [13] deals with 26S proteasome non-ATPase regulatory subunit 14 (Homo sapiens, UniProt O00487). Kind of test: inhibition of proteasome subunit RPN11 – biochemical, fluorescence polarization, uHTS hits, confirmation (AID 602368). Type of test: functional.
Test [14] in a line: Cytotoxicity screening for potential Inhibitors of Bacterial Capsule Biogenesis. [Related pubchem assays (depositor defined):AID488970]. Type of test: functional.
For the next test, the target named is Prothrombin (Bos taurus, UniProt P00735). Kind of test: thrombin protease inhibitors – biochemical, fluorescence polarization, uHTS hits, dose response (AID 602369). Format: functional.
Test [15] addresses T5, Small ubiquitin-related modifier 1. Nature of the test: SUMO1 protein interaction blockers, potency – biochemical, fluorescence polarization, uHTS hits, dose response (AID 624382). The settings on record: read-out: IC50_Mean. Format: functional.
The subject of another test is Vero. Nature of the test: cells. Type of test: functional, cell-based. The note with it: Chlorocebus sabaeus.
For test [16], the target named is T6, Fatty acid synthase (Homo sapiens, UniProt P49327). Kind of test: inhibition of human FAS-TE enzyme activity – biochemical, kinetic fluorescence intensity, dose response (AID 624326).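 Further: rate of fluorescence rise from hydrolysis of a fluorogenic O-methyl fluorescein ester substrate.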 Format: functional.
Test [17] deals with T6, Fatty acid synthase. Kind of test: inhibition of human FAS-TE enzyme activity – biochemical, endpoint fluorescence intensity, uHTS hits, dose response (AID 624327).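 Further: fluorescence from hydrolysis of an O-methyl fluorescein acyl ester substrate by the enzyme.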 Format: functional.
For the next test, the target named is X-box-binding protein 1 (Homo sapiens, UniProt P17861). Type of test: functional, Cricetulus griseus.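 Further: confirmatory dose-response counter-screen serving a CHOP assay.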
Test [18] is described as follows: HEK-293T cell viability reduction – luminescence, B-cell screen hits, cytotoxicity control for BCR NF-kB inhibitor project, dose response (AID 489021).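 Further: HEK-293T cells carrying an NF-kB luciferase reporter; cells exposed to compound for about 14 hours before viability readout.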 Format: functional, cell-based.
A short description of test [19]: viability loss of HPDE-C7K cells – cell-based, fluorescence, HTS, primary screen (AID 431). The note with it: Homo sapiens. Format: functional.
The next test has as its target T7, Hexokinase HKDC1 (Homo sapiens, UniProt Q2TB90).
T7 sequence (Q2TB90 whole entry): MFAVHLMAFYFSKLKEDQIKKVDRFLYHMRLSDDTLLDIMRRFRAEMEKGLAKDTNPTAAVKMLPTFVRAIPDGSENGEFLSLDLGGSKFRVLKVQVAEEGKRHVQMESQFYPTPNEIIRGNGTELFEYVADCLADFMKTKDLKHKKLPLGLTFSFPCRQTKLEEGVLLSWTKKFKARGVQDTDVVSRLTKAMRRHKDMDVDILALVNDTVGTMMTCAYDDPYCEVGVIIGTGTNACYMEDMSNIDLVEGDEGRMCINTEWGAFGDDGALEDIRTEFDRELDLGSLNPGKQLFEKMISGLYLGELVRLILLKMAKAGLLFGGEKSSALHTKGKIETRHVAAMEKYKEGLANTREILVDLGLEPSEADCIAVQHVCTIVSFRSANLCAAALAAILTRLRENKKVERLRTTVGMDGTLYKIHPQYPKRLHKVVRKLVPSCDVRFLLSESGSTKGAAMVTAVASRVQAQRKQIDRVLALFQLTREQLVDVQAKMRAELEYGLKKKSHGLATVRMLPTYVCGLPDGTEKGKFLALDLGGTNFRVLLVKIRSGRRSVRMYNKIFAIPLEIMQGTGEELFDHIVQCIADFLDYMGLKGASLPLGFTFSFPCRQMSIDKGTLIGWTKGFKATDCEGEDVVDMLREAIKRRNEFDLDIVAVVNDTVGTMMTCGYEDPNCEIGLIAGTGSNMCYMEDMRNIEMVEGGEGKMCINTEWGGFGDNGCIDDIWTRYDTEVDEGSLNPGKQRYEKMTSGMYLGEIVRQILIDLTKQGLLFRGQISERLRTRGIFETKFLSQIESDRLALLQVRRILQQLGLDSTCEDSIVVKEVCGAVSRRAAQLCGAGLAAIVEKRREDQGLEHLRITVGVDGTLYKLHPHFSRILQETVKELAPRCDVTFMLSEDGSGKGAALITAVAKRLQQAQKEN
Nature of the test: inhibition of HKDC1 glucose phosphorylation – biochemical, W721R variant, dose response (AID 504729). Format: functional.

Test [20] in a line: HPDE-C7 pancreatic duct cell viability loss – fluorescence, HTS (AID 430). Type of test: functional, cell-based. The settings on record: Homo sapiens.
Test [21] in a line: cells. Type of test: functional, cell-based.
The nature of test [22]: cells. Format: functional, cell-based. The source holds these as a separate data set.
The target in the next test is Protein Rev (Human immunodeficiency virus type 1 group M subtype B (isolate HXB2)(HIV-1), UniProt P04618). Kind of test: blockers of HIV Rev/RRE RNA complex – biochemical, fluorescence polarization, HIV-1, dose response (AID 434976). Details: species or system Human immunodeficiency virus 1.
Test [23] deals with Female germline-specific tumor suppressor gld-1 (Caenorhabditis elegans, UniProt Q17339). Kind of test: blockers of GLD-1/TGE RNA complex formation – biochemical, fluorescence polarization, C. elegans, dose response (AID 2802).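 Further: fluorescence polarization of labeled TGE RNA bound by purified gld-1 protein.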

T3 sequence (O95180 whole entry): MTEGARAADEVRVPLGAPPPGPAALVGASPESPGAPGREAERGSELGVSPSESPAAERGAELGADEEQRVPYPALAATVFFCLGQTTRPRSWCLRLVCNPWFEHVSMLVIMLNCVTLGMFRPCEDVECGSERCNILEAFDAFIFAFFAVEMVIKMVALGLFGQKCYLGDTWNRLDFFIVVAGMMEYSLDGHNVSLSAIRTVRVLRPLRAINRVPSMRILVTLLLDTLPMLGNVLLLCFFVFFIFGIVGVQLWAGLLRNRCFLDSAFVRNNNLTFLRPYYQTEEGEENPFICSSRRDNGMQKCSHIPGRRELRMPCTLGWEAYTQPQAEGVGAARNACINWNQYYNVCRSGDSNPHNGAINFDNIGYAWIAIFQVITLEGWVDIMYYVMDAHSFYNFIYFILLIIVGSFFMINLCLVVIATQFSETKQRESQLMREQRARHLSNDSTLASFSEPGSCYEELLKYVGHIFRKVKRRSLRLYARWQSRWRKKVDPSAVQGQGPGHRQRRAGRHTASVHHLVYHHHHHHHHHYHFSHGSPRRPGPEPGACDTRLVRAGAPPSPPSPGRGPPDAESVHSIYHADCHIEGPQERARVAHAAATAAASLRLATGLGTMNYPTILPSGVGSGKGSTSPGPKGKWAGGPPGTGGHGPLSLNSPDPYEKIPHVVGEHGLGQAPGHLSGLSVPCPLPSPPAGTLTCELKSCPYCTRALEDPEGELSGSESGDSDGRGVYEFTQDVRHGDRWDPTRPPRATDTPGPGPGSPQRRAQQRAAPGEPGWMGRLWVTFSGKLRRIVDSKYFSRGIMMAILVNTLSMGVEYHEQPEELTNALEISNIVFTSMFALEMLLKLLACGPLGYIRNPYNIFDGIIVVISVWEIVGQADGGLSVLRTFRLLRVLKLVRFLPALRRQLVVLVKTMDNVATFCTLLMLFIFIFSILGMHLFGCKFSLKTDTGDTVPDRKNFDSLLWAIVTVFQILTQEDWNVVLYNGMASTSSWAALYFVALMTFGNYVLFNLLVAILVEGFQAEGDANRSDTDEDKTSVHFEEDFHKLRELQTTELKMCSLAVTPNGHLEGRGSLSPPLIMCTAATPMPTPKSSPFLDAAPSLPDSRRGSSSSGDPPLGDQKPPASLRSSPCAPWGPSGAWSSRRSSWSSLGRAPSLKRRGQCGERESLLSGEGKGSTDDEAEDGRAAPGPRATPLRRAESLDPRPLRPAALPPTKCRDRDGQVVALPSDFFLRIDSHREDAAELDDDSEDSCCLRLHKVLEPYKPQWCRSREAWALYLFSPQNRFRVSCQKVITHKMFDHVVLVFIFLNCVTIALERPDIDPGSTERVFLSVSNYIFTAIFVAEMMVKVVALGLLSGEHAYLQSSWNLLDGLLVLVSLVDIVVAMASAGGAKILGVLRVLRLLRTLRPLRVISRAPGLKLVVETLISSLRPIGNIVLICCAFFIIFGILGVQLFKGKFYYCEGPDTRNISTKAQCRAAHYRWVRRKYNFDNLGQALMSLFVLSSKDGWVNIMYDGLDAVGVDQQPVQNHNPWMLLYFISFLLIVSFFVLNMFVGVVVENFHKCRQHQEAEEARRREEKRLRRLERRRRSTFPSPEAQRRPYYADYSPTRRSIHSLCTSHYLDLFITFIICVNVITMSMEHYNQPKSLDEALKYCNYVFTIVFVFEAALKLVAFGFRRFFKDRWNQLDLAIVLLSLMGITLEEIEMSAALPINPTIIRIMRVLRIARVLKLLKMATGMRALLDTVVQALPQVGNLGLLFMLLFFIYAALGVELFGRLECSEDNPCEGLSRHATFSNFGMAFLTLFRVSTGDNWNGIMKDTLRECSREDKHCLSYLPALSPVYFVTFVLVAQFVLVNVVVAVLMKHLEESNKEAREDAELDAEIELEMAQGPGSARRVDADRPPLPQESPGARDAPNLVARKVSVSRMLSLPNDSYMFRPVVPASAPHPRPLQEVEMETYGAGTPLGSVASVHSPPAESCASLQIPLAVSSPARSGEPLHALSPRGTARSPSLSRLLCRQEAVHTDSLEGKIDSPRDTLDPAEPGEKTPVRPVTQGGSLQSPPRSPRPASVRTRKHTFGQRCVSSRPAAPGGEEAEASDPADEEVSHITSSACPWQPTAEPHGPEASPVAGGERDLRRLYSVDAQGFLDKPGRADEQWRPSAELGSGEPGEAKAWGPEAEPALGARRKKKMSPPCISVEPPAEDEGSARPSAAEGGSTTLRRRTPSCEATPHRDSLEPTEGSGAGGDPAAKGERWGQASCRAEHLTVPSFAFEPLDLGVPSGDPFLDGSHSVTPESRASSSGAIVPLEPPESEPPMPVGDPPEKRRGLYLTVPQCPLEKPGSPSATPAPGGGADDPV
T5 sequence (P63165 whole entry): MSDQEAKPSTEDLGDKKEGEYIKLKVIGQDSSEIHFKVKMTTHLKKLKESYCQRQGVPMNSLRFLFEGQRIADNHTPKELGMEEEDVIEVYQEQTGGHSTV
T6 sequence (P49327 whole entry): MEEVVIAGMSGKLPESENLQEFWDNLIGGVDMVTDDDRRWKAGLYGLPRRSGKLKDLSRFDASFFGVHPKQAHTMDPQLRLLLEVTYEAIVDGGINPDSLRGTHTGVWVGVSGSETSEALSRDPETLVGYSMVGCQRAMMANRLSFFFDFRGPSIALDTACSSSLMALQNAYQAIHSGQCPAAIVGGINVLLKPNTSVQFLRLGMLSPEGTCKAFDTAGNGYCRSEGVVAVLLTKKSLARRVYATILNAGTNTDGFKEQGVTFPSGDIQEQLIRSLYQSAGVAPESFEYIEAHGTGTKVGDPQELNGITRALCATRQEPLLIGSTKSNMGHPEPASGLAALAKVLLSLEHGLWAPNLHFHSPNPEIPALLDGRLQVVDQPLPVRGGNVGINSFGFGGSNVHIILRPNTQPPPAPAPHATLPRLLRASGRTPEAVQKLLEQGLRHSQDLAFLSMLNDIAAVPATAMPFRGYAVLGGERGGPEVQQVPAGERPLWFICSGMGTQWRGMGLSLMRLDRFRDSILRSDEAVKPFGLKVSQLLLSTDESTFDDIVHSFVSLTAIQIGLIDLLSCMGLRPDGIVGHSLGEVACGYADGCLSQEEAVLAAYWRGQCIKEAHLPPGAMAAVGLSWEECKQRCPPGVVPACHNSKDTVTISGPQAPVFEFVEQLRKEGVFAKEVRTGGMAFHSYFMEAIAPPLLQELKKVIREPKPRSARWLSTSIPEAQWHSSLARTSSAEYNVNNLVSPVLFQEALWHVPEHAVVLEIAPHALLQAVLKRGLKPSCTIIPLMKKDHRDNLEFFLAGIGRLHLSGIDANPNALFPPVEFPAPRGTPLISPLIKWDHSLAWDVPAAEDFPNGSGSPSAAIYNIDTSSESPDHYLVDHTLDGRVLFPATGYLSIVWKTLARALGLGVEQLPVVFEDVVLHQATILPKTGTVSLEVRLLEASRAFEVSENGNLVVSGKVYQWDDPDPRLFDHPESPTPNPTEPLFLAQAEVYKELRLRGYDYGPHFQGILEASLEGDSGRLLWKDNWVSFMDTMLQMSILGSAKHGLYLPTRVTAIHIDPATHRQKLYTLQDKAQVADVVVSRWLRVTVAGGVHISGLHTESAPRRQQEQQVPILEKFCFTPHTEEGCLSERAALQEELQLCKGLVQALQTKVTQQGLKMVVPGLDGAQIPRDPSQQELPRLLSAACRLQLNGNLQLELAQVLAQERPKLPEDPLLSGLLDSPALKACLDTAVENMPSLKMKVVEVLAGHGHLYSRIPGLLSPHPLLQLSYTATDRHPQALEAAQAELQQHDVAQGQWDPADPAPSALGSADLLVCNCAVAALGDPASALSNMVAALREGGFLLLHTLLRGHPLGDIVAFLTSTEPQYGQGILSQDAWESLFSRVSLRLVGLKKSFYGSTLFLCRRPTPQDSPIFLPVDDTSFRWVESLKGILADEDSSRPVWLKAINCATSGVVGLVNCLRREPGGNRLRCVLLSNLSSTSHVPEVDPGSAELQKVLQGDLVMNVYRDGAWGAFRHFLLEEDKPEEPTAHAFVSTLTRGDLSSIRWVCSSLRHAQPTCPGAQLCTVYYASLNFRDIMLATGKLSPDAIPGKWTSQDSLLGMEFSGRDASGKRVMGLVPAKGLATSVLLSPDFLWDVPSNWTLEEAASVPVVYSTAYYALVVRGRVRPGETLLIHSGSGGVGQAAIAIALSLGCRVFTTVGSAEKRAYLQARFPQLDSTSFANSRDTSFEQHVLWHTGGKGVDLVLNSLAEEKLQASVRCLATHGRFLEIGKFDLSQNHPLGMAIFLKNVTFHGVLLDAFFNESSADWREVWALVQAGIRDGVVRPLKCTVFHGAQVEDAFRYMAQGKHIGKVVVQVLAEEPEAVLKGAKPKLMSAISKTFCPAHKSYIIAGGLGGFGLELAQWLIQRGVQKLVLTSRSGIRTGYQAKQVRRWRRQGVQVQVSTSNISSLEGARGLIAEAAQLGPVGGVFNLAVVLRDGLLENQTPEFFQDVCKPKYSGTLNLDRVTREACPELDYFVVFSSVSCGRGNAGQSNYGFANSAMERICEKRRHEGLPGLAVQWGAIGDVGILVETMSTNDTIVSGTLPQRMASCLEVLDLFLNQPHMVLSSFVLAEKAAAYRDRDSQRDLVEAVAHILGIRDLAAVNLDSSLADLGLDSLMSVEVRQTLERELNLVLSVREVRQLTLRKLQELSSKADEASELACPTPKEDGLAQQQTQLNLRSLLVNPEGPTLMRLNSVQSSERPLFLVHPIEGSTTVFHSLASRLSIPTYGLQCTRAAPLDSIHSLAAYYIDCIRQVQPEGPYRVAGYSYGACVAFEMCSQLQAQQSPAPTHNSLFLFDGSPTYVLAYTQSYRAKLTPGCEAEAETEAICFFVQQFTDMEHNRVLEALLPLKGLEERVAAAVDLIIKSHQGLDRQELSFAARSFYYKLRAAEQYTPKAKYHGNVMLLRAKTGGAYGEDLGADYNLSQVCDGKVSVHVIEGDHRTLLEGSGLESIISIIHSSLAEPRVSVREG
Chain of Protein Rev (P04618 whole entry): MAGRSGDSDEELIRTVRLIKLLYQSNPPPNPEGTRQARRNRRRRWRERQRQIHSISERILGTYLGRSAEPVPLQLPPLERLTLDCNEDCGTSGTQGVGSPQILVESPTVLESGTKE

Take `Cc1ccc2cccc(S(=O)(=O)Nc3ccc4c(c3)OCO4)c2n1`: at Bcl-2-like protein 10, the IC50 is > 100 µM (inactive).

Take `O=C1NC(=O)C(c2ccccc2[N+](=O)[O-])=C1Nc1ccc(O)c(Cl)c1`: the IC50 on Large T antigen was 55.4 µM (active). Further, the half-maximal activity concentration (AC50) in test [1] is 5.56 µM (active); at Cytochrome P450 3A4, 12.6 µM (inconclusive); in test [2], 89.1 µM (active); in [3], 3.11 µM (active); at Cytochrome P450 1A2, 31.6 µM (inconclusive).

Turning to `Cc1cc2c(nc3s/c(=C/c4ccccc4)c(=O)n32)c(Br)c1C`, in [4], the Ki is 28.5 µM (inactive).

Regarding `COc1ccc(NC(=O)CCCOc2cc(=O)n(C)c3ccccc23)cc1Cl`, the EC50 (in test [5]; on Wee1-like protein kinase) was > 49.7 µM (inactive) in each case.

Consider `CC(N)C(=O)OC(C)(C)Cc1ccc(Cl)cc1` (stereo not drawn) [ALAPROCLATE HYDROCHLORIDE], for which the IC50 in test [6] is 8.02 µM (active).

In the case of `CCN(CC)c1ccc2cc(-c3nnc(-c4ccccc4)o3)c(=O)oc2c1`, the EC50 is 0.931 µM (active) in [7], > 99 µM (inactive) in test [8], > 99 µM (inactive) in test [9] and 3.19 µM (active) in test [10].

With `Cc1ccccc1NC(=NCCCN1CC1)Nc1ccccc1C`, the IC50 in [11] was 2.8 µM (active); in test [12], > 100 µM (inactive); in [13] it was 12.5 µM (active); on Prothrombin, 30 µM (active); in test [15], > 66.6 µM (inactive); in the test on Vero, 20.3 µM (active). The CC50 in [14] was 7.68 µM (active).

`CCCCCC1CC(CC(=O)Nc2ccc([N+](=O)[O-])cc2)C(=O)O1` (stereo not drawn): the figures for the IC50 at Fatty acid synthase [16] and on Fatty acid synthase [17] were 12.5 µM (active) and 16.8 µM (active), respectively. For the same compound, the “Absolute IC50 (XBP1)” value at X-box-binding protein 1 is below 10 µM.

On to `Cc1ccc(C)c(-n2nnnc2Sc2nnnn2-c2ccccc2)c1`, for which the IC50 in [18] was > 80 µM (inactive); at Hexokinase HKDC1, 22.6 µM (inactive). For the same compound, the EC50 in [19] was 9.95 µM (active); in test [20] it was 8.15 µM (active); in the test “cells [21]”, > 350 µM (not active); in “cells [22]” it was > 350 µM (not active).

Regarding `CC(OC(=O)/C(C#N)=C/c1ccc(N(C)C)cc1)C(=O)NCc1ccco1` (stereo not drawn), the values for the IC50 (at Protein Rev; in [23]) were > 75.5 µM (not active) and 6.63 µM (active), respectively.

The record behind these values is ChEMBL document CHEMBL1201862, “PubChem BioAssay data set” (2004).
